This is an account of results in patent publication US12256759B2, “Methods for the reduction of methane production in ruminants” (Loam Bio Pty Ltd, priority 2021, dated 2025).

In assay [1] the test system is methane production. The conditions noted are these: among antimethanogenic compounds found in A. taxiformis; cited from earlier work.
Assay [2] deals with T1, methyl-coenzyme M reductase (MCR) (Methanothermobacter marburgensis, UniProt P11558).
T1 sequence (P11558 1-550): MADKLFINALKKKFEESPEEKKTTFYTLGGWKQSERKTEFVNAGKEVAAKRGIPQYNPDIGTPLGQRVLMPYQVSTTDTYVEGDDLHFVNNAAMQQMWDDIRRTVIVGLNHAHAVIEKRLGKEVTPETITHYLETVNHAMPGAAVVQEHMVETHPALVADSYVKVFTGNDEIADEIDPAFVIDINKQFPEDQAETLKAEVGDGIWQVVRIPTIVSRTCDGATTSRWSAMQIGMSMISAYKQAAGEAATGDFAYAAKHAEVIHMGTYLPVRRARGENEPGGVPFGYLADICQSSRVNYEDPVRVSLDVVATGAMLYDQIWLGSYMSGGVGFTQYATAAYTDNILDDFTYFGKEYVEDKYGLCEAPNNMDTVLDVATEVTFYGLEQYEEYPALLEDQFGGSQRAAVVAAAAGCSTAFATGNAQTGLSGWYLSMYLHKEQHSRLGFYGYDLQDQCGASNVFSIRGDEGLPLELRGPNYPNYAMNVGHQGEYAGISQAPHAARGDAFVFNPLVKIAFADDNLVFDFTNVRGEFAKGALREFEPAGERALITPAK
T1 sequence (P11560 1-443 partner): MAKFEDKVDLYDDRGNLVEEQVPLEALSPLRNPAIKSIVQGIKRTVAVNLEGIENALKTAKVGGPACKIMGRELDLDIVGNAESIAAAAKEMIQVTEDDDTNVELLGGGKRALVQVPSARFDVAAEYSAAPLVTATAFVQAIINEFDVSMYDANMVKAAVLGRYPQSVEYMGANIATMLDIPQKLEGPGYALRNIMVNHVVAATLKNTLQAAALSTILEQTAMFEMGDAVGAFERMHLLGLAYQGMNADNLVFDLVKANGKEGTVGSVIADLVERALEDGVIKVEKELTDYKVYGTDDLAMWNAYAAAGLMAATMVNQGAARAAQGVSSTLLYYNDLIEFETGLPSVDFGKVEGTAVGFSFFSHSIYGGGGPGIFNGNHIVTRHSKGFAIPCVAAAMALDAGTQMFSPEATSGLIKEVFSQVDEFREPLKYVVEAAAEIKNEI
T1 sequence (P11562 1-249 partner): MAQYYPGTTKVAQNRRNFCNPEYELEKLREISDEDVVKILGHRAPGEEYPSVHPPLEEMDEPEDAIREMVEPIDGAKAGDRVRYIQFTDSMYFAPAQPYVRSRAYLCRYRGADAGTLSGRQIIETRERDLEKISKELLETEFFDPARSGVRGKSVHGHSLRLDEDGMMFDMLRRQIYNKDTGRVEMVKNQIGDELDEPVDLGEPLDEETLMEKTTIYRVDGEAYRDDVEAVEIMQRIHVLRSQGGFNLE
Particulars: prevents the final catalysis step of methanogenesis; cited from earlier work.

For assay [3], the system named is Methanobrevibacter smithii. Particulars: 100 ul chloroform, positive control.

As for `BrC(Br)Br` [bromoform], the “activity at inhibiting methane production” value in assay [1] is recorded as “highest activity at inhibiting methane production”. Besides, in assay [2], the “mode of action on methyl-coenzyme M reductase (MCR)” value is on record as “competitive inhibitor or analog”.
As for `ClC(Cl)Cl` [chloroform], the “inhibition of methane production” value in assay [3] is on record as “dramatic inhibition in methane production”.
As for `ClC(Br)Br` [dibromochloromethane], the “activity at inhibiting methane production” value in assay [1] is on record as “highest activity at inhibiting methane production”.
